Measured values: patent US20180104232A1, “METHODS FOR DETERMINING PROGNOSIS FOR BREAST CANCER PATIENTS” (The University of Chicago, priority 2015, published 2018)

What was measured:
human TNBC BM1 cells = experiment: Relative CCL5 mRNA in BM1 cells treated with JQ1; type: cell-based; conditions: 300 nM JQ1, GAPDH loading control
Procedure: (§1) FIG. 21: Relative levels of HMGA2 (first bar of each set) and CCL5 (second bar of each set) are shown for the human triple-negative BM1 cell line (top) and the mouse basal-like breast cancer M6C cell line (bottom) treated with the bromodomain inhibitor JQ1, known to block HMGA2 activity. Relative levels of mRNA were calculated using the formula RQ=2-^˜˜CT with GAPDH as the loading control*0.05>p>0.01 ***0.001>p.
(§2) To overcome resistance to Maraviroc and increased CCL5 levels, the inventors are treating the tumor cells with JQ1, a bromodomain inhibitor which regulates HMGA2. HMGA2 is an upstream regulator of CCL5. Additionally, both genes expression levels are included in our prognostic signature. […] We plan to in the future test whether JQ1 in conjunction with Maraviroc are able to lead to a reduction in metastasis in a mouse model.

[1] = test system: mouse basal-like M6C cells; experiment: Relative CCL5 mRNA in M6C cells treated with JQ1; type: cell-based; conditions: 300 nM JQ1, GAPDH loading control
Procedure: as §1, §2

tumors in nude mice = experiment: Treatment of tumor-bearing nude mice with A23 and/or Maraviroc (tumor weight, growth, intravasation); type: in vivo, mouse; conditions: agent alone; nude mice treated for 21 days starting at day 3
Text: B) The corresponding growth curves for the treated mice.

CCL5 = conditions: tumor cells isolated from treated mice
Procedure: (§3) FIG. 20A-F: A) Final tumor weights shown for nude mice treated with the anti-Progranulin neutralizing antibody A23 alone or in combination with the CCR5 inhibitor Maraviroc for 21 days starting at day 3. B) The corresponding growth curves for the treated mice. Tumor volume is calculated as (π/6)*length2*width C) To measure the _rst step of metastasis we examine the relative number of tumor cells intravasating into the blood stream. This is calculated as the relative amount of human GAPDH compared to mouse Gapdh mRNA from cells isolated from blood after treatment. D) Tumor-associated macrophages were isolated from treated mice and qRT-PCR was performed to determine the relative amount of mRNA with Gapdh serving as the loading control; each set of four bars is data from the control, A23, Maraviroc, and A23+Maraviroc, respectively. E-F) Tumor cells were isolated from tumors stripped of mouse cells. RNA was collected and Relative CCL5 and Progranulin (GRN) were calculated with GAPDH as a loading control. *0.05>p>0.01 ** 0.01>p>0.001

CCL7 = conditions: TAMs isolated from treated mice
Procedure: as §3

Molecule	CCL5 expression (human TNBC BM1 cells)	CCL5 expression [1]	effectiveness of treatment in tumor-bearing mice (tumors in nude mice)	CCL5 secreted by tumor cells in response to therapy (CCL5)	CCL7 in the tumor-associated macrophages (CCL7)
Cc1sc2c(c1C)C(c1ccc(Cl)cc1)=N[C@@H](CC(=O)OC(C)(C)C)c1nnc(C)n1-2 [JQ1]	significant reduction	significant reduction	–	–	–
Maraviroc	–	–	not effective	more CCL5	more CCL7
